Results as given in US9309187B2, “EP2 receptor agonists” (TAKEDA GMBH, priority 2012, dated 2016).
Where two headings read alike, the source gives them in different places.

What was measured:
[1] = target: T1, human EP2 receptor (Homo sapiens, UniProt P43116); assay: EP2 binding assay (PGE2 displacement)
T1 construct: purchased Millipore
Description: Method for Measuring Inhibition of PGE2 Binding to the Human Prostanoid Receptor EP2:
Human EP2 receptor equilibrium competition binding assays were performed according to Abramovitz et al. (M. Abramovitz et al. 2000, Biochimica et Biophysica Acta 1483: 285-293) in a final incubation volume of 100 microL in 50 milliM Bis-Tris, pH6.0 in 96-well plates. Radiolabelled Prostaglandin E2 (PGE2) (1 nanoM [^3H]-PGE2 purchased from Perkin Elmer) was added to the assay as competitive ligand. Test compounds stored as Dimethylsulfoxide (DMSO) stock solutions were added to the assay in serial dilutions in assay buffer while keeping the final DMSO concentration equal in each sample. The reaction was initiated by addition of membrane proteins harbouring human EP2 receptor (ChemiSCREEN™ membrane preparation recombinant human EP2 prostanoid receptor that was purchased by Millipore). Total binding was determined in the absence of test compound or PGE2 and non-specific binding was determined in the presence of 1 microM PGE2. Incubations were conducted for 60 minutes at room temperature until equilibrium was reached and terminated by filtration through GF/B filter (Perkin Elmer) prewetted with 0.3% PEI solution. Unbound radiolabelled PGE2 was removed by 8 wash cycles with the same buffer under ice-cold conditions and the filters containing the residual radioactivity were dried for 60 minutes at 60° C. In order to measure the filter bound radioactivity, 40 microL microscint (scintillation liquid) was added to each filter and the chemiluminescence was determined by TopCount-NTX™. The specific binding was calculated by subtracting non-specific binding from each sample. Percent inhibition by test compounds was calculated based on specific binding without test compound. Each sample was measured in triplicates per experiment and for the calculation of the pIC50 at least 2 independent experiments were performed. Determination of half maximal inhibiting concentration (IC50) was performed with GraphPad Prism Software.
The numbers of the compounds correspond to the examples numbers.
EP2 Binding Assay (PGE2 Displacement): pIC50 Values

[2] = target: T2, human prostanoid receptor EP2 (Homo sapiens, UniProt P43116); assay: EP2 cAMP release assay in CHOp6CreLuc-huEP2 cells (CRE-luciferase readout); assay type: cell-based
T2 construct: expressed in transfected cells; host or cells: CHO-K1 (CHOp6CreLuc-huEP2)
Description: Method for Measuring cAMP Release in Human EP2 Stably Transfectant Cells:
The potency and efficacy of EP2 agonists have been determined via measuring cAMP release in stably transfectant CHO-K1 cell expressing the human prostanoid receptor EP2 and luciferase enzyme regulated via a 6 times CRE (cAMP response element) containing transcriptional promoter. CHOp6CreLuc-huEP2 cells were seeded into 384-well plate (1000 cells per well) in DMEM/F12 (Dulbecco's Modified Eagle Medium/Nutrient Mixture F12) cell culture medium containing 2% FCS (Fetal Calf Serum) and 500 μg/ml G418 24 hours prior to the experiment. Test compound was added as serial dilutions while keeping the final DMSO concentration constant in each well. […] Cells were incubated together with test compound or butaprost for 4 hours at 37° C. The cAMP release was determined indirectly via luciferase activity that directly correlated to the amount of luciferase enzyme expressed in response to cAMP regulated promoter activity. The luciferase activity was determined by addition of luciferin containing buffer and subsequent quantification of resulting luminescence. Each sample was measured in quadruplicates per experiment and half-maximal effective concentration (EC50) and relative maximal effect compared to butaprost was determined from 3 independent experiments with GraphPad Prism Software. A compound that achieved over 80% of the maximal effect of butaprost was considered as full agonist.
For the following compounds the potency was determined in the cAMP release assay applying human EP2 transfectant CHOp6CreLuc-huEP2 cells. […] The numbers of the compounds correspond to the examples numbers.
EP2 cAMP Release Assay: pEC50

[3] = system: TNFalpha release in human peripheral blood mononuclear cells (PBMC) stimulated with LPS; assay: Inhibition of LPS induced TNFalpha release in human PBMCs; assay type: cell-based; conditions: 1 ng/mL LPS, 24 hours, reported as range bins, read-out: Inhibition of LPS induced TNFalpha release in human PBMCs pIC30 (-log IC30)
Description: Method for Measuring the Inhibition of TNFalpha Release in Human Peripheral Blood MononuClear Cells (PBMC) Stimulated with LPS:
Assay was performed with some modifications of the method described by Hatzelmann and Schudt (Hatzelmann and Schudt 2001, J. Pharmacol. Exp. Therapeutics 297: 267-279) and the protocol “drawing of venous blood from healthy volunteers for in vitro studies” was approved by the ethics committee of the Landesärztekammer Baden Württemberg in Stuttgart. Peripheral blood mononuclear cells (PBMCs) were isolated from venous blood with the anticoagulant citrate from healthy donors according to standard protocols using Ficoll. The cell layer of PBMCs were washed twice with phosphate buffer solution and equilibrated at room temperature for 60 minutes. 500,000 PBMCs in 180 microL RPMI1640 cell medium supplemented with 10% FCS, NEAA (Non-essential-amino-acids), L-Glutamine and Sodium Pyruvate per sample were pre-incubated with 10 microL of a serial dilution of test compound or piclamilast as positive control for 60 min. at 37° C. After pre-incubation blood samples were stimulated by the addition of 10 microL LPS (Sigma, Aldrich) per sample resulting in a final concentration of 1 ng/mL LPS and a final volume of 200 microL. Cells were incubated for 24 hours at 37° C. TNFalpha levels were determined from cell supernatant that was obtained by a centrifugation step and transferring the supernatant to a new 96-well plate. Content of TNFalpha was determined via alphaLISA Technology according to manufacture protocol (Perkin Elmer).
(§1) PBMC samples that were not stimulated with LPS were used as control and set for 100% inhibition. PBMC samples that were stimulated with LPS and solvent instead of test compound were set as 0% inhibition. Percent inhibition was calculated based on these controls for each sample and since most compounds achieved saturating maximal inhibition of 60% a pIC30 value was calculated with GraphPad Prism Software.
For the following compounds the inhibitory values of TNFalpha release [determined as −log IC30=pIC30] in human PBMCs between 5.0 and 5.9, between 6.0 and 6.9, between 7.0 and 7.9 and between 8.0 and 9.0 have been determined. The numbers of the compounds correspond to the examples numbers.
Inhibition of LPS Induced TNFalpha Release Assay in Human PBMCs: pIC30

[4] = system: TNFalpha release in human whole blood stimulated with LPS; assay: Inhibition of LPS induced TNFalpha release in human whole blood; assay type: cell-based; conditions: 1 microg/mL LPS, 4 hours, reported as range bins, read-out: Inhibition of LPS induced TNFalpha release in human whole blood pIC30 (-log IC30)
Description: Method for Measuring the Inhibition of TNFalpha Release in Human Whole Blood Stimulated with LPS:
Assay was performed with some modifications of the method described by Hatzelmann and Schudt (Hatzelmann and Schudt (2001) JPET 297: 267-279) and the protocol “drawing of venous blood from healthy volunteers for in vitro studies” was approved by the ethics committee of the Landesärztekammer Baden Württemberg in Stuttgart.
Heparinised venous blood was equilibrated to assay conditions for 1 hour at room temperature upon blood drawing. Immediately thereafter, 200 microL whole blood per sample were pre-incubated with 25 microL of a serial dilution of test compound or piclamilast as positive control for 30 min. at 37° C. After pre-incubation blood samples were stimulated by the addition of 25 microL lipopolysaccharide (LPS) (Sigma, Aldrich) per sample resulting in a final concentration of 1 microg/mL LPS and a final volume of 250 microL. Cells were incubated for 4 hours at 37° C. TNFalpha levels were determined from plasma that was obtained by a centrifugation step and transferring the supernatant to a new 96-well plate which was again centrifuged and clear plasma supernatant was used for the measurement of TNFalpha via alphaLISA Technology according to manufacture protocol (Perkin Elmer).
as §1, with “Whole blood” for “PBMC”
For the following compounds the inhibitory values of TNFalpha release [determined as −log IC30=pIC30] in the human whole blood assay between 4.5 and 4.9, between 5.0 and 5.9 and between 6.0 and 6.9 have been determined. The numbers of the compounds correspond to the examples numbers.
Inhibition of LPS Induced TNFalpha Release Assay in Human Whole Blood: pIC30

[5] = recombinant human EP2 membranes, 1 nanoM [3H]-PGE2, reported as range bins, read-out: EP2 binding (PGE2 displacement) pIC50 (-log IC50) (converted)
[6] = CHOp6CreLuc-huEP2 cells, 4 hours at 37° C., reported as range bins, read-out: EP2 cAMP release assay pEC50 (-log EC50) (converted)

T2 sequence (P43116 whole entry): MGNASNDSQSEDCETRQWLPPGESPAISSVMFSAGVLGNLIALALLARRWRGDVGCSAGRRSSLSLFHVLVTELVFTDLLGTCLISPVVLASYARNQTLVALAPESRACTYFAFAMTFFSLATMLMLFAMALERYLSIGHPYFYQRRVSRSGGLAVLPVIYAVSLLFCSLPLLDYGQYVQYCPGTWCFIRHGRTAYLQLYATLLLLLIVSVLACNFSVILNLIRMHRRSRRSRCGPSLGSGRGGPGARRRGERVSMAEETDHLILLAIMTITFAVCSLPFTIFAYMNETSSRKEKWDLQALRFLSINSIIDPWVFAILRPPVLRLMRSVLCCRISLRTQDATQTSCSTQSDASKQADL
T1 sequence (P43116 whole entry): as above

| Compound | IC50 [1, 5] [nM] | EC50 [2, 6] [nM] | IC30 [3] [nM] | IC30 [4] [nM] | IC50 [1] [nM] | EC50 [2] [nM] | maximal effect of positive control relative to PGE2 ([2]; CHOp6CreLuc-huEP2 cells) |
| --- | --- | --- | --- | --- | --- | --- | --- |
| O=C(O)COc1cccc(NC(=O)c2cc(-c3ccccc3)cc3ccccc23)c1 [Example 4] | 1.26 to 10 | 0.126 to 1 | 126 to 1000 | 12600 to 31600 | – | – | – |
| O=C(O)COc1ccc(F)c(NC(=O)c2cc(-c3ccccc3)cc3ccccc23)c1 [Example 5, (4-fluoro-3-{[(3-phenylnaphthalen-1-yl)carbonyl]amino}phenoxy)acetic acid] | 1.26 to 10 | 0.00631 to 0.1 | – | – | – | – | – |
| O=C(O)COc1ccc(Cl)c(NC(=O)c2cc(-c3ccccc3)cc3ccccc23)c1 [Example 6] | 12.6 to 100 | 0.00631 to 0.1 | – | – | – | – | – |
| O=C(O)CCc1cccc(NC(=O)c2cc(-c3ccccc3)cc3ccccc23)c1 [Example 7, 3-(3-{[(3-phenylnaphthalen-1-yl)carbonyl]amino}phenyl) propanoic acid] | 12.6 to 100 | 0.126 to 1 | 126 to 1000 | – | – | – | – |
| O=C(O)CCc1ccc(F)c(NC(=O)c2cc(-c3ccccc3)cc3ccccc23)c1 [Example 8, 3-(4-fluoro-3-{[(3-phenylnaphthalen-1-yl)carbonyl]amino}phenyl) propanoic acid] | 12.6 to 100 | 0.126 to 1 | 126 to 1000 | – | – | – | – |
| O=C(O)/C=C/c1ccc(F)c(NC(=O)c2cc(-c3ccc(F)cc3)cc3ccccc23)c1 [Example 11, (2E)-3-{3-[({3-[4-fluorophenyl]naphthalen-1-yl}carbonyl)amino]-4fluorophenyl}prop-2-enoic acid] | 1.26 to 10 | 0.126 to 1 | – | – | – | – | – |
| O=C(O)/C=C/c1ccc(F)c(NC(=O)c2cc(-c3ccccc3CO)cc3ccccc23)c1 [Example 13, (2E)-3-{4-fluoro-3-[({3-[2-(hydroxymethyl)phenyl]naphthalen-1-yl}carbonyl)amino]phenyl}prop-2-enoic acid] | 1.26 to 10 | 0.126 to 1 | 126 to 1000 | 126 to 1000 | – | – | – |
| O=C(O)/C=C/c1ccc(F)c(NC(=O)c2cc(-c3cccc(CO)c3)cc3ccccc23)c1 [Example 14, (2E)-3-{4-fluoro-3-[({3-[3-(hydroxymethyl)phenyl]naphthalen-1-yl}carbonyl)amino]phenyl}prop-2-enoic acid] | 1.26 to 10 | 0.126 to 1 | 126 to 1000 | – | – | – | – |
| O=C(O)/C=C/c1ccc(F)c(NC(=O)c2cc(-c3cc(O)cc(F)c3)cc3ccccc23)c1 [Example 15, (2E)-3-[4-fluoro-3-({[3-(3-fluoro-5-hydroxyphenyl)naphthalen-1yl]carbonyl}amino)phenyl]prop-2-enoic acid] | 1.26 to 10 | 0.00631 to 0.1 | 1 to 10 | 1260 to 10000 | – | – | – |
| O=C(O)CCc1ccc(F)c(NC(=O)c2cc(-c3ccccc3F)cc3ccccc23)c1 [Example 16, 3-[4-fluoro-3-({[3-(2-fluorophenyl)naphthalen-1yl]carbonyl}amino)phenyl]-propanoicacid] | 12.6 to 100 | 1.26 to 12.6 | 126 to 1000 | – | – | – | – |
| O=C(O)CCc1ccc(F)c(NC(=O)c2cc(-c3cccc(F)c3)cc3ccccc23)c1 [Example 17, 3-[4-fluoro-3-({[3-(3-fluorophenyl)naphthalen-1-yl]carbonyl}amino)phenyl]propanoic acid] | 1.26 to 10 | 0.126 to 1 | 126 to 1000 | – | – | – | – |
| CC(=O)NCc1cccc(-c2cc(C(=O)Nc3cc(/C=C/C(=O)O)ccc3F)c3ccccc3c2)c1 [Example 18] | – | 1.26 to 12.6 | 1260 to 10000 | – | – | – | – |
| O=C(O)/C=C/c1cccc(NC(=O)c2cc(-c3cccc(N4CCNCC4)c3)cc3ccccc23)c1 [Example 20, (2E)-3-{3[({3-[3-(piperazin-1-yl)phenyl]naphthalen-1-yl}carbonyl)amino]phenyl}prop-2-enoic acid] | 126 to 2000 | 1.26 to 12.6 | – | – | – | – | – |
| O=C(O)/C=C/c1cccc(NC(=O)c2cc(N3CCOCC3)cc3ccccc23)c1 [Example 21, (2E)-3-[3-({[3-(morpholin-4-yl)naphthalen-1-yl]carbonyl}amino)phenyl]prop-2-enoic acid] | 126 to 2000 | 1.26 to 12.6 | 126 to 1000 | – | – | – | – |
| CN(C)C(=O)Oc1cccc(-c2cc(C(=O)Nc3cccc(/C=C/C(=O)O)c3)c3ccccc3c2)c1 [Example 23, (2E)-3-(3-{[(3-{3-[(dimethylcarbamoyl)oxy]phenyl}naphthalen-1-yl)carbonyl]amino}phenyl)prop-2-enoic acid] | – | – | 126 to 1000 | – | 126 to 2000 | 1.26 to 12.6 | – |
| CCCC1([C@H](O)C/C=C/[C@H]2[C@H](O)CC(=O)[C@@H]2CCCCCCC(=O)OC)CCC1 [butaprost, reference compound] | – | – | – | – | – | – | same maximal effect compared to the maximal effect of PGE2 |
